Assay results: the supplement of paper PMC5908809

Tests used:
[1] = test system: normal NK cells expanded with K562-aAPC; assay: drug sensitivity score (DSS) (DSS units); higher = more sensitive; extreme values may be limits of the assay; details: 72 h; IL-2 2.5 ng/mL
Description: (§1)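 Drug sensitivity and resistance testing on K562-aAPC-expanded normal NK cells: 5 concentrations (10-fold steps over a 10,000-fold range), 72 h at 37 °C, viability by CellTiter-Glo normalised to DMSO and benzethonium chloride controls; DSS from the fitted curve.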

KAI3 (IL-2 2.5 ng/mL) [2] = assay: percent inhibition of viability; higher = more inhibition; details: 72 h
IMC-1 (IL-2 20 ng/mL) [3] = assay: as above; details: 72 h
KHYG-1 (IL-2 2.5 ng/mL) [4] = assay: as above; details: 72 h
DERL-7 (IL-2 2.5 ng/mL) [5] = assay: as above; details: 72 h
[6] = test system: normal primary NK cells, pool 1 (3 donors) (IL-2 2.5 ng/mL); assay: as above; details: 72 h
NK-92 (IL-2 2.5 ng/mL) [7] = assay: as above; details: 72 h
NKL (IL-2 2.5 ng/mL) [8] = assay: as above; details: 72 h
YT (IL-2 2.5 ng/mL) [9] = assay: as above; details: 72 h
[10] = test system: normal primary NK cells, pool 3 (3 donors) (IL-2 2.5 ng/mL); assay: as above; details: 72 h
SNK-6 (IL-2 2.5 ng/mL) [11] = assay: as above; details: 72 h
[12] = test system: normal primary NK cells, pool 1 (3 donors), resting (IL-2 0 ng/mL); assay: as above; details: 72 h
[13] = test system: normal primary NK cells, pool 2 (3 donors) (IL-2 2.5 ng/mL); assay: as above; details: 72 h
NK-YS (IL-2 2.5 ng/mL) [14] = assay: as above; details: 72 h
KAI3 (IL-2 2.5 ng/mL) [15] = assay: drug sensitivity score (DSS) (DSS units); higher = more sensitive; extreme values may be limits of the assay; details: 72 h
IMC-1 (IL-2 20 ng/mL) [16] = assay: as above; details: 72 h
KHYG-1 (IL-2 2.5 ng/mL) [17] = assay: as above; details: 72 h
DERL-7 (IL-2 2.5 ng/mL) [18] = assay: as above; details: 72 h
[19] = test system: normal primary NK cells, pool 1 (3 donors) (IL-2 2.5 ng/mL); assay: as above; details: 72 h
NK-92 (IL-2 2.5 ng/mL) [20] = assay: as above; details: 72 h
NKL (IL-2 2.5 ng/mL) [21] = assay: as above; details: 72 h
YT (IL-2 2.5 ng/mL) [22] = assay: as above; details: 72 h
[23] = test system: normal primary NK cells, pool 3 (3 donors) (IL-2 2.5 ng/mL); assay: as above; details: 72 h
SNK-6 (IL-2 2.5 ng/mL) [24] = assay: as above; details: 72 h
[25] = test system: normal primary NK cells, pool 1 (3 donors), resting (IL-2 0 ng/mL); assay: as above; details: 72 h
[26] = test system: normal primary NK cells, pool 2 (3 donors) (IL-2 2.5 ng/mL); assay: as above; details: 72 h
NK-YS (IL-2 2.5 ng/mL) [27] = assay: as above; details: 72 h
[28] = test system: normal NK cells expanded with K562-aAPC; assay: percent inhibition of viability; higher = more inhibition; details: 72 h, IL-2 2.5 ng/mL
Description: as §1

CCn1c(-c2nonc2N)nc2cnc(Oc3cccc(NC(=O)c4ccc(OCCN5CCOCC5)cc4)c3)cc21 (max concentration tested 10000 nM)
Details	drug sensitivity score
DERL-7 (IL-2 2.5 ng/mL) [18]	18.2
IMC-1 (IL-2 20 ng/mL) [16]	2.4
KAI3 (IL-2 2.5 ng/mL) [15]	9.52
KHYG-1 (IL-2 2.5 ng/mL) [17]	6.96
NK-92 (IL-2 2.5 ng/mL) [20]	12.4
NK-YS (IL-2 2.5 ng/mL) [27]	12.6
NKL (IL-2 2.5 ng/mL) [21]	5.93
SNK-6 (IL-2 2.5 ng/mL) [24]	19.4
YT (IL-2 2.5 ng/mL) [22]	2.8
[1]	3.71
[19]	6.54
[23]	5.91
[25]	4.87
[26]	4.86

percent inhibition of viability [%]
Details	1 nM	10 nM	100 nM	1000 nM	10000 nM
DERL-7 (IL-2 2.5 ng/mL) [5]	1.35	15.3	42.9	62.8	72.7
IMC-1 (IL-2 20 ng/mL) [3]	-0.83	-2.25	6.95	14.1	26.8
KAI3 (IL-2 2.5 ng/mL) [2]	-3.04	-8.72	11.1	37.2	95
KHYG-1 (IL-2 2.5 ng/mL) [4]	1.19	3.45	16.6	24.8	68.2
NK-92 (IL-2 2.5 ng/mL) [7]	-3.47	11.4	34.4	37.1	74
NK-YS (IL-2 2.5 ng/mL) [14]	-0.26	-0.53	30.8	48.4	41.9
NKL (IL-2 2.5 ng/mL) [8]	-13.6	-19.1	-8.42	24	52.5
SNK-6 (IL-2 2.5 ng/mL) [11]	-9.46	8.6	49.6	70.1	55.5
YT (IL-2 2.5 ng/mL) [9]	1.84	-0.78	1.36	15.7	28.5
[6]	-7.22	2.09	6.8	18.7	70
[10]	-9.45	-1.75	4.61	14.9	64.5
[12]	-4.42	-15.8	7.47	11.9	54.7
[13]	-8.71	-2.3	9.01	9.21	60.8
[28]	7.28	-0.78	-0.39	9.1	43.7

CN(c1ccccc1CNc1nc(Nc2ccc3c(c2)CC(=O)N3)ncc1C(F)(F)F)S(C)(=O)=O (max concentration tested 10000 nM)
Details	drug sensitivity score
DERL-7 (IL-2 2.5 ng/mL) [18]	14.4
IMC-1 (IL-2 20 ng/mL) [16]	11.1
KAI3 (IL-2 2.5 ng/mL) [15]	9.97
KHYG-1 (IL-2 2.5 ng/mL) [17]	14.9
NK-92 (IL-2 2.5 ng/mL) [20]	8.85
NK-YS (IL-2 2.5 ng/mL) [27]	11.6
NKL (IL-2 2.5 ng/mL) [21]	13.3
SNK-6 (IL-2 2.5 ng/mL) [24]	5.93
YT (IL-2 2.5 ng/mL) [22]	9.64
[1]	12.4
[19]	10.5
[23]	8.12
[25]	3.72
[26]	8.64

percent inhibition of viability [%]
Details	1 nM	10 nM	100 nM	1000 nM	10000 nM
DERL-7 (IL-2 2.5 ng/mL) [5]	-11.5	1.19	-8.22	78.2	101
IMC-1 (IL-2 20 ng/mL) [3]	-8.05	-9.43	-5.71	42.5	100
KAI3 (IL-2 2.5 ng/mL) [2]	2.15	-4.73	-2.81	30.6	106
KHYG-1 (IL-2 2.5 ng/mL) [4]	3.44	-1.15	1.69	81.4	109
NK-92 (IL-2 2.5 ng/mL) [7]	-16.5	-24	-36	20.4	108
NK-YS (IL-2 2.5 ng/mL) [14]	-1.08	-5.55	-3.8	48.1	106
NKL (IL-2 2.5 ng/mL) [8]	-5.61	-8.98	4.68	65.6	109
SNK-6 (IL-2 2.5 ng/mL) [11]	-0.86	-15.1	-15.1	15.3	64.4
YT (IL-2 2.5 ng/mL) [9]	0.31	-4.2	-5.3	27.2	109
[6]	4.57	-5.98	14.5	42.7	99.6
[10]	-4.56	-2.11	-3.97	15.6	100
[12]	-21.8	-18.3	-4.27	-35.7	91.4
[13]	-24.5	-16.5	-8.34	20.1	98.1
[28]	-7.88	-4.41	-2.88	58	101

CN(c1ncccc1CNc1nc(Nc2ccc3c(c2)CC(=O)N3)ncc1C(F)(F)F)S(C)(=O)=O (max concentration tested 10000 nM)
Details	drug sensitivity score
DERL-7 (IL-2 2.5 ng/mL) [18]	8
IMC-1 (IL-2 20 ng/mL) [16]	5.8
KAI3 (IL-2 2.5 ng/mL) [15]	7.77
KHYG-1 (IL-2 2.5 ng/mL) [17]	10.8
NK-92 (IL-2 2.5 ng/mL) [20]	5.49
NK-YS (IL-2 2.5 ng/mL) [27]	9.57
NKL (IL-2 2.5 ng/mL) [21]	8.95
SNK-6 (IL-2 2.5 ng/mL) [24]	3.56
YT (IL-2 2.5 ng/mL) [22]	9.01
[1]	6.5
[19]	7.02
[23]	4.64
[25]	3.17
[26]	4.9

percent inhibition of viability [%]
Details	1 nM	10 nM	100 nM	1000 nM	10000 nM
DERL-7 (IL-2 2.5 ng/mL) [5]	-3.04	-1.94	-4.92	14.9	99.9
IMC-1 (IL-2 20 ng/mL) [3]	-1.02	-1.57	1.51	2.71	97.8
KAI3 (IL-2 2.5 ng/mL) [2]	-4.38	-3.17	-1.99	15.1	94.9
KHYG-1 (IL-2 2.5 ng/mL) [4]	1.46	-1.82	-1.38	42.5	95.7
NK-92 (IL-2 2.5 ng/mL) [7]	-15.3	-22	-13	1.77	94.6
NK-YS (IL-2 2.5 ng/mL) [14]	1.14	-3.29	-8.54	31.5	92.8
NKL (IL-2 2.5 ng/mL) [8]	-0.23	-12.4	-5.82	24.1	95
SNK-6 (IL-2 2.5 ng/mL) [11]	8.22	-2.6	-15.8	2.42	59.8
YT (IL-2 2.5 ng/mL) [9]	2.65	-2.39	-3.31	24.6	95.2
[6]	-2.69	-13.7	-10.8	10	97.2
[10]	-12.7	-6.19	-9.86	-12.6	97.7
[12]	-20.5	-23.2	-40	-70.9	88.9
[13]	-12.4	-9.66	-11.1	-4.87	94.8
[28]	-0.87	-5.24	-0.38	6.43	99.8

Cn1cc(C2=Nc3cc(NC(=O)C(N)C4CCCCC4)cc4c3C2=CNNC4=O)cn1 (stereo unspecified) (max concentration tested 10000 nM)
Details	drug sensitivity score
DERL-7 (IL-2 2.5 ng/mL) [18]	11.1
IMC-1 (IL-2 20 ng/mL) [16]	19.1
KAI3 (IL-2 2.5 ng/mL) [15]	19.7
KHYG-1 (IL-2 2.5 ng/mL) [17]	22.6
NK-92 (IL-2 2.5 ng/mL) [20]	14.7
NK-YS (IL-2 2.5 ng/mL) [27]	15.2
NKL (IL-2 2.5 ng/mL) [21]	11.7
SNK-6 (IL-2 2.5 ng/mL) [24]	18
YT (IL-2 2.5 ng/mL) [22]	15
[1]	11.4
[19]	2.92
[23]	6.18
[25]	0
[26]	6.1

percent inhibition of viability [%]
Details	1 nM	10 nM	100 nM	1000 nM	10000 nM
DERL-7 (IL-2 2.5 ng/mL) [5]	-5.54	-1.5	4.6	48.3	97.6
IMC-1 (IL-2 20 ng/mL) [3]	-2.84	-1.7	7.25	99.8	101
KAI3 (IL-2 2.5 ng/mL) [2]	-1.93	-2.44	21.2	93	103
KHYG-1 (IL-2 2.5 ng/mL) [4]	18.4	5.75	32.3	104	107
NK-92 (IL-2 2.5 ng/mL) [7]	3.17	-3.7	17.4	65.2	107
NK-YS (IL-2 2.5 ng/mL) [14]	-0.41	0.42	9.21	75.4	97.2
NKL (IL-2 2.5 ng/mL) [8]	-1.81	2.84	-0.69	61.7	82.7
SNK-6 (IL-2 2.5 ng/mL) [11]	5.64	12.4	25.4	80.5	97.2
YT (IL-2 2.5 ng/mL) [9]	1.41	1.74	10.1	72.6	104
[6]	-1.65	-6.59	-10.1	-4.12	59.9
[10]	-13	-2.42	9.48	11.7	76.2
[12]	1.23	-6.26	-15.6	-23.2	9.49
[13]	-14.2	-7.44	-6.63	8.32	85.8
[28]	-1.76	0.06	11.6	53.4	73.3
